Laboratory results: patent US20020009747A1, “METHODS AND REAGENTS FOR IDENTIFYING MODULATORS OF NEURONAL APOPTOSIS” (priority 1997, published 2002)
Entries after “also recorded” stand apart in the source; their conditions may differ.

System: primary sympathetic neurons
Experiment: NGF withdrawal assay, neuronal survival quantitated by MTT assay
Type: cell-based
Conditions: protein expressed by recombinant adenovirus infection, NGF withdrawn
Experimental: One experimental system which can be used to assay for changes in death marker proteins in neurons undergoing cell death employs primary sympathetic neurons that are cultured for 3-5 days in nerve growth factor (NGF) to maintain their survival, after which time NGF is withdrawn to induce apoptosis. Death of the neuron occurs within 48 hours and requires transcription. […] Prior to the commitment point, the neurons can be rescued by re-supplying them with NGF; subsequent to the commitment point, the neurons can no longer be rescued, and are committed to die. As a part of the invention, we have shown that death due to NGF withdrawal in this assay is an apoptotic event (see Example V, below).
To confirm that primary sympathetic neurons die by apoptotic cell death, neurons were infected with a recombinant adenovirus expressing E1B55K, an adenoviral protein known to inhibit apoptosis by inhibiting p53. After adenovirus infection, NGF was withdrawn, and neuronal survival was then quantitated by MTT assay, as in Slack et al. supra.

Row | Substance | neuronal survival / death after NGF withdrawal
1 | Bcl2: a protein that can inhibit apoptosis | inhibits cell death in NGF-deprived neurons
2 | E1B55K: adenoviral protein known to inhibit apoptosis by inhibiting p53, expressed from a recombinant adenovirus | inhibits death in NGF-deprived neurons; also recorded: rescue of sympathetic neuron apoptosis
